Assay results taken from US10961238B2, “Modulators of hedgehog (Hh) signaling pathway” (E-THERAPEUTICS PLC, priority 2016, dated 2021).
Where two headings read alike, the source gives them in different places.

System: C3H10T1/2 cells
Experiment: C3H assay: differentiation of C3H10T1/2 cells by mSHH, measurement of alkaline phosphatase
Type: cell-based, mouse
Conditions: C3H10T1/2 cells stimulated with mSHH for 72 hours, alkaline phosphatase activity, read-out: IC50 Ranges

With `CC(C)(C)NC(=O)N1CC(S(=O)(=O)N2CCC(c3coc4cccnc34)CC2)C1` [Compound 370, N-tert-butyl-3-(4-furo[3,2-b]pyridin-3-ylpiperidin-1-yl)sulfonylaze-tidine-1-carboxamide] the IC50 (Mus musculus, C3H 10T1/2) was 10 to 100 nM.

`CC[C@@H](C)OC(=O)N1CC(S(=O)(=O)N2CCC(c3coc4cccnc34)CC2)C1` [Compound 371, [(2R)-butan-2-yl]3-(4-furo[3,2-b]pyridin-3-ylpiperidin-1-yl)sulfonylaze-tidine-1-carboxylate] showed an IC50 of 10 to 100 nM.

For `CC1(C)COCN1C(=O)N1CC(S(=O)(=O)N2CCC(c3coc4cccnc34)CC2)C1` [Compound 372, (4,4-dimethyl-1,3-oxazolidin-3-yl)-[3-(4-furo[3,2-b]pyridin-3-ylpiperidin-1-yl)sulfonylaze-tidin-1-yl]methanone], the IC50 was 10 to 100 nM.

`CC(C)[C@@H](CO)NC(=O)N1CC(S(=O)(=O)N2CCC(c3coc4cccnc34)CC2)C1` [Compound 373, 3-(4-furo[3,2-b]pyridin-3-ylpiperidin-1-yl)sulfonyl-N-[(2S)-1-hydroxy-3-methylbutan-2-yl]azetidine-1-carboxamide] was tested, and the IC50 (Mus musculus, C3H 10T1/2) was 10 to 100 nM.

For `C[C@@H]1CN(C(=O)N2CC(S(=O)(=O)N3CCC(c4coc5cccnc45)CC3)C2)C[C@H](C)O1` [Compound 374, [(2R,6S)-2,6-dimethylmorpholin-4-yl]-[3-(4-furo[3,2-b]pyridin-3-ylpiperidin-1-yl)sulfonylazetidin-1-yl]methanone], the IC50 (Mus musculus, C3H 10T1/2) was < 10 nM.

Compound `CC(C)(C)C(=O)CN1CC(S(=O)(=O)N2CCC(c3ccc(F)cc3)CC2)C1` [Compound 375, 1-[3-[4-(4-fluorophenyl)piperidin-1-yl]sulfonylaze-tidin-1-yl]-3,3-dimethylbutan-2-one] has an IC50 (Mus musculus, C3H 10T1/2) of 100 to 1000 nM.

Work on `CC(C)(C)C(=O)CN1CC(S(=O)(=O)N2CCC(c3coc4cccnc34)CC2)C1` [Compound 376, 1-[3-(4-furo[3,2-b]pyridin-3-ylpiperidin-1-yl)sulfonylazetidin-1-yl]-3,3-dimethylbutan-2-one] yielded an IC50 (Mus musculus, C3H 10T1/2) of 10 to 100 nM.

Work on `O=C(CC1CCOCC1)N1CC(S(=O)(=O)N2CCC(c3coc4cccnc34)CC2)C1` [Compound 377, 1-[3-[(4-furo[3,2-b]pyridin-3-yl-1-piperidyl)sulfonyl]azetidin-1-yl]-2-tetrahydropyran-4-yl-ethanone] yielded an IC50 (Mus musculus, C3H 10T1/2) of 10 to 100 nM.

For `CC(C)(C)C(=O)CN1CC(S(=O)(=O)N2CCC(c3ccc(C#N)cc3)CC2)C1` [Compound 378, 4-[1-[1-(3,3-dimethyl-2-oxobutyl)azetidin-3-yl]sulfonylpiperidin-4-yl]benzonitrile], the IC50 (Mus musculus, C3H 10T1/2) was 100 to 1000 nM.

With `O=C(CC(O)(C(F)(F)F)C(F)(F)F)N1CC(S(=O)(=O)N2CCC(c3c[nH]c4cccnc34)CC2)C1` [Compound 379, 4,4,4-trifluoro-3-hydroxy-1-[3-[4-(1H-pyrrolo[3,2-b]pyridin-3-yl)piperidin-1-yl]sulfonylaze-tidin-1-yl]-3-(trifluoromethyl) butan-1-one] the IC50 (Mus musculus, C3H 10T1/2) was 10 to 100 nM.

With `Cc1ccc2c(C3CCN(S(=O)(=O)C4CN(C(=O)OC5CCOCC5)C4)CC3)c[nH]c2n1` [Compound 380, oxan-4-yl 3-[4-(6-methyl-1H-pyrrolo[2,3-b]pyridin-3-yl)piperidin-1-yl]sulfonylaze-tidine-1-carboxylate] the IC50 (Mus musculus, C3H 10T1/2) was < 10 nM.

With `Cc1ccc2c(C3CCN(S(=O)(=O)C4CN(C(=O)N5C[C@@H](C)O[C@@H](C)C5)C4)CC3)c[nH]c2n1` [Compound 381, [cis-2,6-dimethylmorpholin-4-yl]-[3-[4-(6-methyl-1H-pyrrolo[2,3-b]pyridin-3-yl)piperidin-1-yl]sulfonylazetidin-1-yl]methanone] the IC50 (Mus musculus, C3H 10T1/2) was < 10 nM.

Work on `Cc1cccc(C)c1NC(=O)N1CC(S(=O)(=O)N2CCC(c3coc4cccnc34)CC2)C1` [Compound 382, N-(2,6-dimethylphenyl)-3-(4-furo[3,2-b]pyridin-3-ylpiperidin-1-yl)sulfonylaze-tidine-1-carboxamide] yielded an IC50 (Mus musculus, C3H 10T1/2) of 10 to 100 nM.

In the case of `O=C(Nc1cccc(F)c1)N1CC(S(=O)(=O)N2CCC(c3coc4cccnc34)CC2)C1` [Compound 383, N-(3-fluorophenyl)-3-(4-furo[3,2-b]pyridin-3-ylpiperidin-1-yl)sulfonylaze-tidine-1-carboxamide], the IC50 (Mus musculus, C3H 10T1/2) is reported as 10 to 100 nM.

`O=C(Nc1cc(F)ccc1Cl)N1CC(S(=O)(=O)N2CCC(c3coc4cccnc34)CC2)C1` [Compound 384, N-(2-chloro-5-fluorophenyl)-3-(4-furo[3,2-b]pyridin-3-ylpiperidin-1-yl)sulfonylaze-tidine-1-carboxamide] gave an IC50 (Mus musculus, C3H 10T1/2) of 10 to 100 nM.

`O=C(Nc1cc(F)ccc1Cl)N1CC(S(=O)(=O)N2CCC(c3c[nH]c4ncccc34)CC2)C1` [Compound 385, N-(2-chloro-5-fluorophenyl)-3-[4-(1H-pyrrolo[2,3-b]pyridin-3-yl)piperidin-1-yl]sulfonylaze-tidine-1-carboxamide] gave an IC50 (Mus musculus, C3H 10T1/2) of 10 to 100 nM.

Work on `Cc1noc(C)c1CC(=O)N1CC(S(=O)(=O)N2CCC(c3ccc(Cl)cc3)CC2)C1` [Compound 386, 1-[3-[4-(4-chlorophenyl)piperidin-1-yl]sulfonylaze-tidin-1-yl]-2-(3,5-dimethyl-1,2-oxazol-4-yl)ethanone] yielded an IC50 (Mus musculus, C3H 10T1/2) of 10 to 100 nM.

`Cc1cccc(F)c1NC(=O)N1CC(S(=O)(=O)N2CCC(c3c[nH]c4ncccc34)CC2)C1` [Compound 387, N-(2-fluoro-6-methylphenyl)-3-[4-(1H-pyrrolo[2,3-b]pyridin-3-yl)piperidin-1-yl]sulfonylaze-tidine-1-carboxamide] was tested, and the IC50 (Mus musculus, C3H 10T1/2) was 10 to 100 nM.

In the case of `O=C(Nc1cccc(F)c1)N1CC(S(=O)(=O)N2CCC(c3c[nH]c4ncccc34)CC2)C1` [Compound 389, N-(3-fluorophenyl)-3-[4-(1H-pyrrolo[2,3-b]pyridin-3-yl)piperidin-1-yl]sulfonylaze-tidine-1-carboxamide], the IC50 (Mus musculus, C3H 10T1/2) is reported as 10 to 100 nM.

`O=C(Nc1c(F)cccc1F)N1CC(S(=O)(=O)N2CCC(c3c[nH]c4ncccc34)CC2)C1` [Compound 390, N-(2,6-difluorophenyl)-3-[4-(1H-pyrrolo[2,3-b]pyridin-3-yl)piperidin-1-yl]sulfonylaze-tidine-1-carboxamide] was tested, and the IC50 (Mus musculus, C3H 10T1/2) was 10 to 100 nM.

Compound `Cc1cccc(C)c1NC(=O)N1CC(S(=O)(=O)N2CCC(c3c[nH]c4ncccc34)CC2)C1` [Compound 391, N-(2,6-dimethylphenyl)-3-[4-(1H-pyrrolo[2,3-b]pyridin-3-yl)piperidin-1-yl]sulfonylaze-tidine-1-carboxamide] has an IC50 (Mus musculus, C3H 10T1/2) of 10 to 100 nM.

Compound `Cc1cc(F)ccc1NC(=O)N1CC(S(=O)(=O)N2CCC(c3coc4cccnc34)CC2)C1` [Compound 392, N-(4-fluoro-2-methylphenyl)-3-(4-furo[3,2-b]pyridin-3-ylpiperidin-1-yl)sulfonylaze-tidine-1-carboxamide] has an IC50 (Mus musculus, C3H 10T1/2) of 10 to 100 nM.

For `C[C@@H]1CN(C(=O)N2CC(S(=O)(=O)N3CCC(c4ccc(Cl)cc4)CC3)C2)C[C@H](C)O1` [Compound 393, [3-[4-(4-chlorophenyl)piperidin-1-yl]sulfonylaze-tidin-1-yl]-[(2R,6S)-2,6-dimethylmorpholin-4-yl]methanone], the IC50 (Mus musculus, C3H 10T1/2) was 10 to 100 nM.

`Cc1cc(F)ccc1NC(=O)N1CC(S(=O)(=O)N2CCC(c3c[nH]c4ncccc34)CC2)C1` [Compound 394, N-(4-fluoro-2-methylphenyl)-3-[4-(1H-pyrrolo[2,3-b]pyridin-3-yl)piperidin-1-yl]sulfonylazet idine-1-carboxamide] was tested, and the IC50 (Mus musculus, C3H 10T1/2) was 10 to 100 nM.

`CC(C)(O)CC(=O)N1CC(S(=O)(=O)N2CCC(c3coc4cccnc34)CC2)C1` [Compound 398, 1-[3-(4-furo[3,2-b]pyridin-3-ylpiperidin-1-yl)sulfonylaze-tidin-1-yl]-3-hydroxy-3-methylbutan-1-one] gave an IC50 (Mus musculus, C3H 10T1/2) of 100 to 1000 nM.
